{
  "source": "patent US20240057592A1",
  "about": "“PESTICIDE COMPOSITIONS OF PHENOL AND RESORCINOL DIENES AND TRIENES” (METABOLIC INSIGHTS LTD., priority 2020, published 2024)",
  "key": {"Rhizoctonia solani [1]": {"tested_on": "Rhizoctonia solani", "experiment": "In-vivo validation under greenhouse conditions in cucumber seedlings infected with Rhizoctonia solani", "details": "preventative treatment 24 h before inoculation, 7 d after inoculation, best of 9 experiments", "method": "(§1) Formulation 3—Three types of stock solutions were used for final CART formulation preparation at 400 ppm: • (A) 0.1% CART solution in water+base (CART dissolved in water to 0.1% and sonicated for 10 mins at room temperature, then Na2CO3 25% stock was added to volume of 4% of the solution. The solution should be clear orange and at pH=8.0. The solution was sonicated for 20 minutes); • (B) 0.4% Xanthan Gum in water (w/w); • (C) 0.6% Silwet in water (w/w). The final formulation which was applied to cucumber seedlings composed of: 40% of stock solution A, 10% of stock solutions B and C, and 40% of water. The final formulation 3 was either applied as 400 ppm of diluted to the required concentrations and applied to cucumber seedlings. Formulation 4—Three types of stock solutions were used for final CART formulation preparation at 400 ppm: • (A) 10% CART in DMSO (CART dissolved in DMSO to 10% (w/w) and sonicated for 5 mins at room temperature); • (B) 0.4% Xanthan Gum in water (w/w); • (C) 0.6% Silwet in water (w/w). The final formulation which was applied to cucumber seedlings composed of: […], 10% of stock solutions B and C, and 76% of water. The final formulation 4 was either applied as 400 ppm of diluted to the required concentrations and applied to cucumber seedlings. […]\n(§2) To evaluate the effect of a Cardol triene in infected plants compared to control plants (infected but not treated) the data was analyzed by Student's t-test and the p-value is calculated. […]\n• General description: Rhizoctonia disease severity were evaluated following preventative treatment with CART (Cardol triene). […]"}, "Pythium aphanidermatum [2]": {"tested_on": "Pythium aphanidermatum", "experiment": "In-vivo validation under greenhouse conditions in cucumber seedlings infected with Pythium aphanidermatum", "details": "preventative treatment 24 h before inoculation, 7 d after inoculation, best of 9 experiments", "method": "as §1, §2\n• General description: Pythium aphanidermatum disease severity development was evaluated following preventative treatment by Cardol triene (CART) […]"}, "Pseudomonas syringae": {"tested_on": "Pseudomonas syringae", "experiment": "Microplate based screening of bioactivity against Pseudomonas syringae", "format": "cell-based", "quoted_text": "• 1) Grow Pseudomonas on LBA plates at 28° C. for 2 days to get a single colony • 2) Transfer a single colony using a sterile toothpick into a 50 ml sterile tube containing 5 ml LB and grow for 24 at 28° C. and 150 RPM • 3) Chill the tube in the fridge for 1 h • 4) Add 7.5 ml of fridge cold, sterile, glycerol solution to the tube—to get 60% glycerol solution • 5) Mix well but gently to get perfect mixing—use vortex at 1000 RPM • 6) Aliquot 100 ul of bacteria suspension in 60% glycerol into 1.5 ml tubes—each aliquot should be enough for screening of 10 microplates • 7) Store the bacteria suspension in 60% glycerol at −20° C.\n• 1) Take 1.5 ml tube with 100 ul frozen Pseudomonas suspension from the freezer and thaw it on ice • 2) Prepare in the hood 50 ml tubes with 40 ml fridge cold LB • 3) Mix 40 ul of bacteria suspension with 40 ml fridge cold LB in a 50 ml tube. This amount is enough for activity screening of 10 microplates • 4) Use this suspension for bioactivity screening experiments.\nThe bioactivity values are in % and reflect the potential of eradicating the target pests. Rules for Bioactivity Relative Value Calculation (Expressed in % from Maximal Value) • a. […] Pseudomonas syringae—activity grade (1/2/3)×repeats #X days of activity/168 (maximal value 3×4×14=168)*100"}, "Rhizoctonia solani [3]": {"tested_on": "Rhizoctonia solani", "experiment": "Microplate based assay of bioactivity against Rhizoctonia solani", "format": "cell-based", "from_the_text": "• 1) Screen plate at 3 more dates: 3 d, 7 d, 14 d and 21 d following the assay start • 2) Calculate the difference of absorbance between each screen and the read at zero time • 3) Calculate the percentage of growth inhibition of each well at each time point. […]"}, "Pythium aphanidermatum [4]": {"tested_on": "Pythium aphanidermatum", "experiment": "Microplate based screening of bioactivity against Pythium aphanidermatum", "format": "cell-based", "quoted_text": "The following Materials, methods and equipment were used: • Materials: SCH, PDBC, DMSO • Equipment: Plate reader, Centrifuge, Shaker, Incubator\n• Grow Pythium aphanidermatum on SCH in 90 mm petri plates to get sporulating hyphae. […]\n• 1) Read out the plate at 3 more dates: 3 d, 7 d, 14 d and 21 d following the assay start • 2) Calculate the difference of absorbance between each readout and the readout at zero time • 3) Calculate the percentage of growth inhibition of each well at each time point. […]"}, "[5]": {"details": "10 ul of 250 ppm solution + 40 ul inoculum, activity grade x repeats x days of activity/252*100, read to 21 d"}},
  "data": [
    {"smiles": "C=CC/C=C\\C/C=C\\CCCCCCCc1cc(O)cc(O)c1", "note": "[Cardol triene, 5-8Z,11Z,14-pentadecatrien-1-yl-1,3-benzenediol]", "values": [
      {"measurement": "efficacy at preventing the plants death", "setting": "Rhizoctonia solani [1]; 100 ppm", "value": "up to 81.2%"},
      {"measurement": "efficacy at preventing the plants death", "setting": "Rhizoctonia solani [1]; 200 ppm", "value": "up to 100%"},
      {"measurement": "efficacy at preventing the plants death", "setting": "Rhizoctonia solani [1]; 400 ppm", "value": "up to 98.4%"},
      {"measurement": "efficacy at preventing the plants death", "setting": "Pythium aphanidermatum [2]; 100 ppm", "value": "up to 97.6%"},
      {"measurement": "efficacy at preventing the plants death", "setting": "Pythium aphanidermatum [2]; 200 ppm", "value": "up to 100%"},
      {"measurement": "efficacy at preventing the plants death", "setting": "Pythium aphanidermatum [2]; 400 ppm", "value": "up to 71.4%"},
      {"measurement": "Relative Activity value (%)", "setting": "Pseudomonas syringae; 10 ul of 250 ppm solution + 40 ul inoculum, activity grade x repeats x days of activity/168*100", "value": 50, "unit": "%"},
      {"measurement": "pesticidal activity in words", "setting": "Pseudomonas syringae; summary statement", "value": "effective pesticides"},
      {"measurement": "Relative Activity value (%)", "setting": "Rhizoctonia solani [3]; [5]", "value": 60, "unit": "%"},
      {"measurement": "pesticidal activity in words", "setting": "Rhizoctonia solani [3]; summary statement", "value": "effective pesticides"},
      {"measurement": "Relative Activity value (%)", "setting": "Pythium aphanidermatum [4]; [5]", "value": 100, "unit": "%"},
      {"measurement": "pesticidal activity in words", "setting": "Pythium aphanidermatum [4]; summary statement", "value": "effective pesticides"}
    ]}
  ]
}
